In ChEMBL document CHEMBL1201862, “PubChem BioAssay data set” (2004):
Calls of active or inactive are those of the source.

Tests used:
[1] = Luminescence Cell-Based Dose Retest to Confirm Inhibitors of Cancer Stem Cells. [Related pubchem assays (depositor defined):AID2717, AID2721]; format: functional; details: Homo sapiens
[2] = cytotoxicity in HMLE control line with eGFP shRNA, dose response, counter-screen for HMLE_sh_ECad selective toxicity project, cell-based, HMLE_sh_eGFP, luminescence (AID 463074); format: functional, Homo sapiens;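 also: HMLE human mammary epithelial cells expressing control shRNA against eGFP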
[3] = molecular target: 5-hydroxytryptamine receptor 5A (Homo sapiens, UniProt P47898); test: Counterscreen for agonists of OPRM1-OPRD1 heterodimerization: luminescence-based cell-based high throughput dose response assay to identify agonists of 5-hydroxytryptamine (serotonin) 5A receptor (HTR5A). [Related pubchem assays (depositor defined):AID504326, AID504355, AID504692, AID504904, AID504905]; format: functional
Mu-type opioid receptor = Mu-type opioid receptor (Homo sapiens, UniProt P35372); test: (§1) Counterscreen for agonists of heterodimerization of the mu 1 (OPRM1) and delta 1 (OPRD1) opioid receptors: Luminescence-based cell-based high throughput dose response assay to identify agonists of OPRM1 homodimerization.; format: functional
[4] = molecular target: Delta-type opioid receptor (Homo sapiens, UniProt P41143); test: as §1, with “of OPRD1” for “of OPRM1”, “homodimerization. [Related pubchem assays (depositor defined):AID504326, AID504355, AID504692, AID504904, AID504905]” for “homodimerization.”; format: functional
[5] = molecular target: T1, High affinity choline transporter 1 (Homo sapiens, UniProt Q9GZV3); test: CHT inhibitors, dose response, cell-based, 5-point CRC, membrane potential dye (AID 504840); format: functional
T1 sequence (Q9GZV3 whole entry): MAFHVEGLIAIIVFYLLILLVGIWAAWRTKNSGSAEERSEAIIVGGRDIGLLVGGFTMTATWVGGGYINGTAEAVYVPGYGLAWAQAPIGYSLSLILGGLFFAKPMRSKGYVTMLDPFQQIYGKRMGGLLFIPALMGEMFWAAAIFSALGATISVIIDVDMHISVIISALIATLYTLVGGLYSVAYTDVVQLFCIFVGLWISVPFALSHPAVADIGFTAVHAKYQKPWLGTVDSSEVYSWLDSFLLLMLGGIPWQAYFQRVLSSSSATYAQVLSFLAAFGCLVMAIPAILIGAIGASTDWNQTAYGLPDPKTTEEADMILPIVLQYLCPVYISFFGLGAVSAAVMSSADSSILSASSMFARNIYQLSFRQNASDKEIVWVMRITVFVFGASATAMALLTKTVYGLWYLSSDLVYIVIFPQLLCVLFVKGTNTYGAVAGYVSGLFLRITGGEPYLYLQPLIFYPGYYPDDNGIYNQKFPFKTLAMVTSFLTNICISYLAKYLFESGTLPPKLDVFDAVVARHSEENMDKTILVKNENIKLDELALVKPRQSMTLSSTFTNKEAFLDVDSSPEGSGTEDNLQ

[6] = molecular target: T2, Microphthalmia-associated transcription factor (Homo sapiens, UniProt O75030); test: TRPM1 promoter luciferase signal decrease, dose response, MITF inhibitor project, cell-based, SK-MEL-5, cherry-picked, set 3 (AID 493073); format: functional
T2 sequence (O75030 whole entry): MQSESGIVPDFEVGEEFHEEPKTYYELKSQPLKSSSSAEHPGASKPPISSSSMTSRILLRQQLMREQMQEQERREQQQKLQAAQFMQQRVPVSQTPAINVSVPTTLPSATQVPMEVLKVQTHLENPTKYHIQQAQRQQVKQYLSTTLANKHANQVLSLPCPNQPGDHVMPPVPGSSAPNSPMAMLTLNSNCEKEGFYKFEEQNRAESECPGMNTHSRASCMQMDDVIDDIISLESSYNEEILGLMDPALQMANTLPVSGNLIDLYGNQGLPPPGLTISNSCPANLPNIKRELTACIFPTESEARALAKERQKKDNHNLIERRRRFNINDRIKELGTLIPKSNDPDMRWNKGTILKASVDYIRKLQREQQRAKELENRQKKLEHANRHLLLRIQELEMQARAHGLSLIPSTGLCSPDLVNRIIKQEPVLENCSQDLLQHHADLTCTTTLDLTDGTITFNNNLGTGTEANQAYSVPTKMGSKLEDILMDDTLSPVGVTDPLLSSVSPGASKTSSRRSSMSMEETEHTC

Cytochrome P450 1A2 = molecular target: T3, Cytochrome P450 1A2 (Homo sapiens, UniProt P05177);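 also: PubChem cytochrome P450 panel assay, CYP1A2 panel member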
T3 sequence (P05177 whole entry): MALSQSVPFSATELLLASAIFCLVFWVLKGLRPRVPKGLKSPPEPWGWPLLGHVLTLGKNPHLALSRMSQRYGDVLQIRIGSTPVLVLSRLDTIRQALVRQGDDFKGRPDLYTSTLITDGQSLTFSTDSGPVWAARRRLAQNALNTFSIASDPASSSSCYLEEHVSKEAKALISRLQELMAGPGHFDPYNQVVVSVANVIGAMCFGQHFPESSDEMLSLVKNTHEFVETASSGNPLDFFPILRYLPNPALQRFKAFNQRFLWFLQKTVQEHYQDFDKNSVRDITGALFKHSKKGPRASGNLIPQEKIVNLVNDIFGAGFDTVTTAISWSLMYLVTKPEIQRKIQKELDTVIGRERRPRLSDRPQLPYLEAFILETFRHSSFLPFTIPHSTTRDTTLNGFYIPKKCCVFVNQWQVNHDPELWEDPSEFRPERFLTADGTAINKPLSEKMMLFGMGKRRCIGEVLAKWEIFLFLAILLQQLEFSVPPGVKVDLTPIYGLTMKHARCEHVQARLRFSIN

Cytochrome P450 2C9 = Cytochrome P450 2C9 (Homo sapiens, UniProt P11712)
[7] = Luminescence Cell-Based Dose Response HTS to Identify Activators of Luciferase Translation or Activity in H4 […] Cells. [Related pubchem assays: 1829 (Project Summary), 1814 (Primary HTS)]; format: functional
[8] = Luminescence Cell-Based Dose Confirmation HTS to Identify Activators of 5'UTR Stem-Loop Driven Alpha-Synuclein mRNA Translation in H4 Neuroglioblastoma Cells. [Related pubchem assays: 1829 (Project Summary), 1814 (Primary HTS)]; format: functional
H4 = test: Luminescence Cell-Based Dose Response HTS to Identify Activators of 5'UTR Stem-Loop Driven Prion Protein mRNA Translation in H4 Neuroglioblastoma Cells. [Related pubchem assays: 1829 (Project Summary), 1814 (Primary HTS)]; format: functional; details: Homo sapiens
Cytochrome P450 2C19 = Cytochrome P450 2C19 (Homo sapiens, UniProt P33261); test: Cytochrome panel assay with activity outcomes. Panel member name: p450-cyp2c19 Compounds with AC50 equal or less than 10 uM are considered active; format: functional
Cytochrome P450 2C19, sequence (P33261 whole entry): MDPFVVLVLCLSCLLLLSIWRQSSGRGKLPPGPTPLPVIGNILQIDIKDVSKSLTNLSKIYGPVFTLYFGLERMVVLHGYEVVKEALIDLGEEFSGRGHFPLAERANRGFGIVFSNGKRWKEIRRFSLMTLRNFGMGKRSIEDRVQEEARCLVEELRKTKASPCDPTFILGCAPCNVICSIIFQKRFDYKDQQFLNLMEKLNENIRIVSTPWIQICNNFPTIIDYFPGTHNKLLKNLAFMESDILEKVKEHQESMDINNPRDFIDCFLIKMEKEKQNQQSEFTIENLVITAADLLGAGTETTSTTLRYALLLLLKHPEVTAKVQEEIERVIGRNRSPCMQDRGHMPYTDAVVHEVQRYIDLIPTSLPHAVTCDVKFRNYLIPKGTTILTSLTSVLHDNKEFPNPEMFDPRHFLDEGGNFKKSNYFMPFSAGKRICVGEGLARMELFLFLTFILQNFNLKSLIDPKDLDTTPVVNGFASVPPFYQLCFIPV

5-hydroxytryptamine receptor 5A, sequence (P47898 whole entry): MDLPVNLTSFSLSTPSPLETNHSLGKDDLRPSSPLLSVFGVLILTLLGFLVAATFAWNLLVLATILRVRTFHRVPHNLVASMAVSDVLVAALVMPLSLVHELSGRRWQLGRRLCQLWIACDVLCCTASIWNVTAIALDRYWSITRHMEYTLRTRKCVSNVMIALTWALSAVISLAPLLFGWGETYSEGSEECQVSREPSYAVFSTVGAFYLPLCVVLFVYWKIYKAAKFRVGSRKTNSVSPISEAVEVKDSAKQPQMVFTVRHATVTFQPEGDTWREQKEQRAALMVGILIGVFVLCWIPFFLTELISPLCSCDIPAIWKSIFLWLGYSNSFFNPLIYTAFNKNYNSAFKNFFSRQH
Mu-type opioid receptor, sequence (P35372 whole entry): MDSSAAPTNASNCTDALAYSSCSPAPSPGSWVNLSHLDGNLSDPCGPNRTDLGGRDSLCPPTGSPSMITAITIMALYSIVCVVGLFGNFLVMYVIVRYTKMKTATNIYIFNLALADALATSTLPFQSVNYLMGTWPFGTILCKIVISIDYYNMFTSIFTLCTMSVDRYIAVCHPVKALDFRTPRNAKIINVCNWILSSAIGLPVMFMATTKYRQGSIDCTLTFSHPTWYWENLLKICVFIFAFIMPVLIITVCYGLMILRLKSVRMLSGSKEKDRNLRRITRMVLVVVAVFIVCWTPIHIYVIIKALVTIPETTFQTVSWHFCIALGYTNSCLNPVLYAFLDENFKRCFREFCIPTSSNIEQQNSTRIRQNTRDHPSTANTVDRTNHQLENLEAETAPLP
Delta-type opioid receptor, sequence (P41143 whole entry): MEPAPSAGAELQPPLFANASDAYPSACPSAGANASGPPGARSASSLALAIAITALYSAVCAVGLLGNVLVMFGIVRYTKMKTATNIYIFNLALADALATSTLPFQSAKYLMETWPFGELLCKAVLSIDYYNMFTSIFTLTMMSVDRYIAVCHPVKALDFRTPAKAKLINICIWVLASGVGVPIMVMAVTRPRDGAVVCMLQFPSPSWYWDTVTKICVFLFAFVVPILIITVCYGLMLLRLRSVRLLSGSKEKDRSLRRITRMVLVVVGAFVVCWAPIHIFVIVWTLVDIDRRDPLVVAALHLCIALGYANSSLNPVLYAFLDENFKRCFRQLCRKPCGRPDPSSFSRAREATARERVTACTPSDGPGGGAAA
Cytochrome P450 2C9, sequence (P11712 whole entry): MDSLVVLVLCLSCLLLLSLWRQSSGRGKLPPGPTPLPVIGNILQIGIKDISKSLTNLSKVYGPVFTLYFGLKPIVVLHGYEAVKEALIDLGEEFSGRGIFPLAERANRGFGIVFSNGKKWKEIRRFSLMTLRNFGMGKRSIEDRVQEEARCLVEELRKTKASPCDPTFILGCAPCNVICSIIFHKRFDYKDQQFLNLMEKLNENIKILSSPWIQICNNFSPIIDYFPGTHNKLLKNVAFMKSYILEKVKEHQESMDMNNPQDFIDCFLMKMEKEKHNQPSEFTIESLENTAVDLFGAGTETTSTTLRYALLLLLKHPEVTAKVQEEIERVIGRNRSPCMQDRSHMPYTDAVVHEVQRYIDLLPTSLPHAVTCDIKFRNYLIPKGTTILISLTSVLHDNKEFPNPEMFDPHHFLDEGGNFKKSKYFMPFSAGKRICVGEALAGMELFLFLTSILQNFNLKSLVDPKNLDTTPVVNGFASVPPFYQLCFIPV

Q: With Cc1cc(C)nc(-n2ncc3c2CC(c2cccc(Cl)c2)CC3=O)n1 (centres undefined) as the compound, how does the AC50 [1] read?
A: 29.1 µM (active)

Q: What about the AC50 [2] of the same compound?
A: 46.8 µM (active)

Q: Which EC50 [3] does the source give for Brc1ccc(NC2=Nc3ccccc3CC2)cc1 here?
A: > 92.5 µM (inactive)

Q: And the EC50 (Mu-type opioid receptor)?
A: 52.1 µM (inactive)

Q: And the EC50 [4]?
A: > 92.5 µM (inactive)

Q: With CC1CCCCC1NC(=O)c1c(O)n2ccccc2nc1=O (centres undefined) as the compound, how does the IC50 [5] read?
A: 4.79 µM (active)

Q: For Cc1ccc(C(=O)N/C(=C\c2ccc(-c3ccccc3[N+](=O)[O-])o2)C(=O)NCCN(C)C)cc1, which AC50 [6] is on record?
A: 4.87 µM (active)

Q: Which EC50 [3] does the source give for COc1ccc(C(C(=O)NC2CCCCC2)N(C(=O)Cc2c[nH]c3ccccc23)c2ccc(NC(C)=O)cc2)cc1OC (centres undefined) here?
A: > 92.5 µM (inactive)

Q: And the EC50 (Mu-type opioid receptor)?
A: > 92.5 µM (inactive)

Q: What about the EC50 [4] of the same compound?
A: > 92.5 µM (inactive)

Q: What about the AC50 (Cytochrome P450 1A2) of the same compound?
A: 25.1 µM (inconclusive)

Q: What about the AC50 (Cytochrome P450 2C9) of the same compound?
A: 12.6 µM (inconclusive)

Q: For CC(NC(=O)c1ccc([N+](=O)[O-])o1)C12CC3CC(CC(C3)C1)C2 (centres undefined), which EC50 [7] is on record?
A: > 120 µM (not active)

Q: What about the EC50 [8] of the same compound?
A: > 120 µM (not active)

Q: And the EC50 (H4)?
A: 13.8 µM (active)

Q: And the AC50 [6]?
A: 15.1 µM (active)

Q: And the AC50 [1]?
A: 4.68 µM (active)

Q: Which AC50 (Cytochrome P450 2C19) does the source give for CC1=NC(C)(C)Cc2ccccc21.O=C(O)c1ccccc1O here?
A: inconclusive

Q: What about the IC50 [5] of the same compound?
A: 13.2 µM (active)
